Data on two compounds can be found in patent publication US10844077B2, “Thiazolyl-containing compounds for treating proliferative diseases” (Dana-Farber Cancer Institute, Inc., priority 2014, dated 2020).

What all share (experiment): KINATIV assay of compounds I-3 and I-9, lysate directly labeled with ATP-biotin probe (no GF)
Assay type in all cases: cell-based

Experiment [1] addresses kinases in BCWM.1 cells (Homo sapiens, UniProt P51451). Particulars: BLK; Activation Loop; 1 μM; no GF. The protocol:
(§1) The cells were harvested and lysed. […] Bound kinases were identified and quantitated by ACTIVX as described in Patricelli et al., Biochemistry, 2007, 46(2): 350-358. The compounds were tested in duplicates against duplicate or quadruplicate control samples.

Experiment [2] has as its target kinases in BCWM.1 cells (Homo sapiens, UniProt P49840). Conditions: GSK3A; Lys2; 1 μM; no GF. The protocol:
as §1

The target of experiment [3] is kinases in BCWM.1 cells (Homo sapiens, UniProt Q14680). Particulars: MELK; Lys2; 1 μM; no GF. The protocol: as §1
Experiment [4] deals with kinases in BCWM.1 cells (Homo sapiens, UniProt P28482). Particulars: Erk2; Lys2; 1 μM; no GF. The protocol:
as §1

Experiment [5] has as its target kinases in BCWM.1 cells (Homo sapiens, UniProt P46734). Particulars: MAP2K3; Lys2; 1 μM; no GF. The protocol:
as §1

Experiment [6] addresses kinases in BCWM.1 cells (Homo sapiens, UniProt P54762). Conditions: EphB1; Activation Loop; 1 μM; no GF. The protocol: as §1
In experiment [7] the target is kinases in BCWM.1 cells (Homo sapiens, UniProt Q13164). Conditions: Erk5; Lys2; 1 μM; no GF. How it is done: as §1
kinases in BCWM.1 cells (Homo sapiens, UniProt Q13164), sequence (Q13164 2-816 limits assumed): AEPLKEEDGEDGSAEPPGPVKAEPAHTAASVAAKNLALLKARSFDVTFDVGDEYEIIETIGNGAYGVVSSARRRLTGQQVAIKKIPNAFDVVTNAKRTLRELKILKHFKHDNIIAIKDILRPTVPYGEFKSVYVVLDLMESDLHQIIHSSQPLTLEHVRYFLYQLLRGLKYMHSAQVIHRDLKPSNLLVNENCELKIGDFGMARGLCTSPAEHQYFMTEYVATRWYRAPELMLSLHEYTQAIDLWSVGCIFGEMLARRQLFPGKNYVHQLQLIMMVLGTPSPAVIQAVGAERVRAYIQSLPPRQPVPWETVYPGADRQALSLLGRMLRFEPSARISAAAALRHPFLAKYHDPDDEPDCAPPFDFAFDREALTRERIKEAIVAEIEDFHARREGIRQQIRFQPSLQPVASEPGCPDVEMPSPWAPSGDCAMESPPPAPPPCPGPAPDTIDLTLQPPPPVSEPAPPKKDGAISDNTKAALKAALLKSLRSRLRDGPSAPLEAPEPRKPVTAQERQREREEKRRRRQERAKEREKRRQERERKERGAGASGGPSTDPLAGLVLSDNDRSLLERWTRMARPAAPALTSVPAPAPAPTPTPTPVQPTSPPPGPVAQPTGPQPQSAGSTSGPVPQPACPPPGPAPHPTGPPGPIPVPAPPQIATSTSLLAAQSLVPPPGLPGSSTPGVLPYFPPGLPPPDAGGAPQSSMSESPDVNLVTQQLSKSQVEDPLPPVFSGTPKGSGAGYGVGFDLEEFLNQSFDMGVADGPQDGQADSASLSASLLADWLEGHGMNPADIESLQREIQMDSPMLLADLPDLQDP
In experiment [8] the target is kinases in BCWM.1 cells (Homo sapiens, UniProt Q96RR4). Conditions: CaMKK2; Lys2; 1 μM; no GF. How it is done: as §1
kinases in BCWM.1 cells (Homo sapiens, UniProt Q96RR4), sequence (Q96RR4 2-588 limits assumed): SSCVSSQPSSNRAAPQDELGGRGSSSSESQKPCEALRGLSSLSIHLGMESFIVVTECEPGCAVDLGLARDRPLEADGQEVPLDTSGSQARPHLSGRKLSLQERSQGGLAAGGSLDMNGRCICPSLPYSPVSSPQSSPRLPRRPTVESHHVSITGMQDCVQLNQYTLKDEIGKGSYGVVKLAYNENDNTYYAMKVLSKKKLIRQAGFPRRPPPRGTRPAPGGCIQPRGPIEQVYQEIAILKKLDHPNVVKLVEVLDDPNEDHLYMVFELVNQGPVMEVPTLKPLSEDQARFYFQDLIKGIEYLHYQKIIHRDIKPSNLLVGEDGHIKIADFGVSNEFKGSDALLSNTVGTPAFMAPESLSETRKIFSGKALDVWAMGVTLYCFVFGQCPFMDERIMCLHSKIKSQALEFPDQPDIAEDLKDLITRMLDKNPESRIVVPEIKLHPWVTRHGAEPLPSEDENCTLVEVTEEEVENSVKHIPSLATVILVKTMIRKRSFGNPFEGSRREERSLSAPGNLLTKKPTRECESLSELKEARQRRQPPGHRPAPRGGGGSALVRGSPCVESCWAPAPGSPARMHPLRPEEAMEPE
The target of experiment [9] is kinases in BCWM.1 cells (Homo sapiens, UniProt Q9Y616). Particulars: IRAK3; Lys1; 1 μM; no GF. The protocol: as §1
The target in experiment [10] is kinases in BCWM.1 cells (Homo sapiens, UniProt P09769). Conditions: FGR; Activation Loop; 1 μM; no GF. How it is done:
as §1

The target in experiment [11] is kinases in BCWM.1 cells (Homo sapiens, UniProt O14936). Conditions: CASK; Lys1; 1 μM; no GF. How it is done:
as §1

In experiment [12] the target is kinases in BCWM.1 cells (Homo sapiens, UniProt P78368). Particulars: CK1g2; Lys2; 1 μM; no GF. The protocol:
as §1

For experiment [13], the target named is kinases in BCWM.1 cells (Homo sapiens, UniProt P42685). Conditions: FRK; Activation Loop; 1 μM; no GF. How it is done: as §1
The target in experiment [14] is kinases in BCWM.1 cells (Homo sapiens, UniProt Q16566). Conditions: CaMK4; Lys2; 1 μM; no GF. How it is done:
as §1

The target of experiment [15] is kinases in BCWM.1 cells (Homo sapiens, UniProt Q13418). Particulars: ILK; Protein Kinase Domain; 1 μM; no GF. How it is done: as §1
In experiment [16] the target is kinases in BCWM.1 cells (Homo sapiens, UniProt Q00534). Particulars: CDK6; Lys2; 1 μM; no GF. The protocol:
as §1

Experiment [17] deals with kinases in BCWM.1 cells (Homo sapiens, UniProt Q8NB16). Particulars: MLKL; Lys1; 1 μM; no GF. The protocol:
as §1

Experiment [18] has as its target kinases in BCWM.1 cells (Homo sapiens, UniProt Q99755). Conditions: PIP5K1A; ATP; 1 μM, 90 min; no GF. The protocol: as §1
The target in experiment [19] is kinases in BCWM.1 cells (Homo sapiens, UniProt Q9Y6E0). Conditions: MST3; Lys2; 1 μM; no GF. The protocol: as §1
Experiment [20] addresses kinases in BCWM.1 cells (Homo sapiens, UniProt O00418). Particulars: eEF2K; ATP; 1 μM; no GF. The protocol:
as §1

The target of experiment [21] is kinases in BCWM.1 cells (Homo sapiens, UniProt Q16659). Conditions: Erk3; Lys2; 1 μM; no GF. The protocol:
as §1

Experiment [22] deals with kinases in BCWM.1 cells (Homo sapiens, UniProt Q13315). Particulars: ATM; ATP; 1 μM; no GF. How it is done: as §1
The target of experiment [23] is kinases in BCWM.1 cells (Homo sapiens, UniProt Q13188). Conditions: MST2; Lys1; 1 μM; no GF. The protocol:
as §1

Experiment [24] has as its target kinases in BCWM.1 cells (Homo sapiens, UniProt Q15831). Particulars: LKB1; Lys2; 1 μM; no GF. How it is done:
as §1

The target in experiment [25] is kinases in BCWM.1 cells (Homo sapiens, UniProt Q02156). Conditions: PKCe; Lys2; 1 μM, 90 min; no GF. How it is done: as §1
Experiment [26] has as its target kinases in BCWM.1 cells (Homo sapiens, UniProt Q9C0K7). Conditions: STLK6; Lys1; 1 μM, 90 min; no GF. The protocol:
as §1

For experiment [27], the target named is kinases in BCWM.1 cells (Homo sapiens, UniProt P78356). Particulars: PIP4K2B; ATP; 1 μM, 90 min; no GF. The protocol:
as §1

The target of experiment [28] is kinases in BCWM.1 cells (Homo sapiens, UniProt Q16513). Particulars: PKN2; Lys2; 1 μM, 90 min; no GF. The protocol: as §1
For experiment [29], the target named is kinases in BCWM.1 cells (Homo sapiens, UniProt P17612). Conditions: PKACa; Lys2; 1 μM, 90 min; no GF. How it is done: as §1

Values joined by “and” are separate entries in the source; they are usually repeats but may differ in a detail not shown here. Identical values can stand only once.

kinases in BCWM.1 cells (Homo sapiens, UniProt P28482), sequence (P28482 2-360 limits assumed): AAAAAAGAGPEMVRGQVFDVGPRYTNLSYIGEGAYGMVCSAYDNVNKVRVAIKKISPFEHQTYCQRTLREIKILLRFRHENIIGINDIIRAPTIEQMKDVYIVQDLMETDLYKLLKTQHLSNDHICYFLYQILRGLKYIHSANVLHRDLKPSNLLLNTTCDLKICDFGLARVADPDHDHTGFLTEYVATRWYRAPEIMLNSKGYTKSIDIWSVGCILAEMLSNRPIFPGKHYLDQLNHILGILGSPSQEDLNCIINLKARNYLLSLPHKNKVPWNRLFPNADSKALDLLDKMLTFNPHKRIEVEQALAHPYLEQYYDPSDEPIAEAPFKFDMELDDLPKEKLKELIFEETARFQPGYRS
kinases in BCWM.1 cells (Homo sapiens, UniProt P49840), sequence (P49840 2-483 limits assumed): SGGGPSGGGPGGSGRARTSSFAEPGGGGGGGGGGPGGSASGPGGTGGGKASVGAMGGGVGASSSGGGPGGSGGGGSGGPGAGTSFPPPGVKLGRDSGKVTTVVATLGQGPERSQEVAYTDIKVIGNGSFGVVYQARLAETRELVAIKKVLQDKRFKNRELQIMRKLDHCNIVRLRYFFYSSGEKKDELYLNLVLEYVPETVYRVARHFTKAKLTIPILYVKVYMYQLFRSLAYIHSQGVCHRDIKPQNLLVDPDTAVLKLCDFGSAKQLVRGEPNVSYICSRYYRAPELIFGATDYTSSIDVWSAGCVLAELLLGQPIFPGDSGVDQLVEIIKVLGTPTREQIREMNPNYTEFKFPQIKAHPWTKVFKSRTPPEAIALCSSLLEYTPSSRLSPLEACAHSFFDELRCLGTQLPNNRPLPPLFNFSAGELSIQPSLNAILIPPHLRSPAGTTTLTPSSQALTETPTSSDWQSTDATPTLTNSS
kinases in BCWM.1 cells (Homo sapiens, UniProt P09769), sequence (P09769 2-529 limits assumed): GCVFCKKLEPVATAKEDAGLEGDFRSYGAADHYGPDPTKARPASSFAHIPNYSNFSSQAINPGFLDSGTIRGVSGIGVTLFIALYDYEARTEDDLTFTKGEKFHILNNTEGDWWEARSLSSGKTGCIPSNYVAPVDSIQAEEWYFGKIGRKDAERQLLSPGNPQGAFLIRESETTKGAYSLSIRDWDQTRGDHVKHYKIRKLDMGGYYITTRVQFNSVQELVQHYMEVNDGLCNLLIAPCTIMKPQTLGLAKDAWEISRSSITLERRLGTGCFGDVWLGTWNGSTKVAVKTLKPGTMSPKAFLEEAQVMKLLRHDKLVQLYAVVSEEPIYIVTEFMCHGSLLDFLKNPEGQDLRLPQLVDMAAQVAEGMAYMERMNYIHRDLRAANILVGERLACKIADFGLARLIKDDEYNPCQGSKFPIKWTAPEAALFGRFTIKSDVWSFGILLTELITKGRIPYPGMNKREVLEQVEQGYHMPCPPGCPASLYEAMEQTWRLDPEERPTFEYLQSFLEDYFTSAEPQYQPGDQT
kinases in BCWM.1 cells (Homo sapiens, UniProt P54762), sequence (P54762 18-984 limits assumed): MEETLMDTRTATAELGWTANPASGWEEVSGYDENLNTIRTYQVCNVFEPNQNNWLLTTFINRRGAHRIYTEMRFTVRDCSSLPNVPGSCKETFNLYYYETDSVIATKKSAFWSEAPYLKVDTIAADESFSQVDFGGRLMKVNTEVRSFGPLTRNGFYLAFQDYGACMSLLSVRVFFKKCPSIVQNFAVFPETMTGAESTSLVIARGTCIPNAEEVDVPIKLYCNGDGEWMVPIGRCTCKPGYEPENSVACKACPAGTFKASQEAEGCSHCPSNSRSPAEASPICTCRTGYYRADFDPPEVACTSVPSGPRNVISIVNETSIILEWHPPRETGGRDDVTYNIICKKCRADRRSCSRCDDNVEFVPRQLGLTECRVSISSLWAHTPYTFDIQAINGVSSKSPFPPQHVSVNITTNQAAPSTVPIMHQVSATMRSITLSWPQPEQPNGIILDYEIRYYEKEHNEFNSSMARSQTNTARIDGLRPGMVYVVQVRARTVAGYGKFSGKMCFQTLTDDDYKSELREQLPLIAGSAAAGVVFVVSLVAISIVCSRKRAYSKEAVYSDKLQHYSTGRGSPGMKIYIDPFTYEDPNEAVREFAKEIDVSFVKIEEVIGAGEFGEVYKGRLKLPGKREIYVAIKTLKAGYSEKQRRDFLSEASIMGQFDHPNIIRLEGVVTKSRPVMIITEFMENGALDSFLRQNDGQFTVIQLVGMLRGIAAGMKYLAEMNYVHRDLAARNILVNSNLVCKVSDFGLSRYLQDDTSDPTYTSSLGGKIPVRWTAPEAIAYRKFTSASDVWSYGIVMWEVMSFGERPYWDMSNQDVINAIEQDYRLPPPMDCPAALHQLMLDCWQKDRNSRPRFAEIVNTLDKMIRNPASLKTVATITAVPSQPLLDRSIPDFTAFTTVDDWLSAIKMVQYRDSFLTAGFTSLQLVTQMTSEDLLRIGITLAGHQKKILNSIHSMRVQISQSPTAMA
kinases in BCWM.1 cells (Homo sapiens, UniProt O00418), sequence (O00418 2-725 limits assumed): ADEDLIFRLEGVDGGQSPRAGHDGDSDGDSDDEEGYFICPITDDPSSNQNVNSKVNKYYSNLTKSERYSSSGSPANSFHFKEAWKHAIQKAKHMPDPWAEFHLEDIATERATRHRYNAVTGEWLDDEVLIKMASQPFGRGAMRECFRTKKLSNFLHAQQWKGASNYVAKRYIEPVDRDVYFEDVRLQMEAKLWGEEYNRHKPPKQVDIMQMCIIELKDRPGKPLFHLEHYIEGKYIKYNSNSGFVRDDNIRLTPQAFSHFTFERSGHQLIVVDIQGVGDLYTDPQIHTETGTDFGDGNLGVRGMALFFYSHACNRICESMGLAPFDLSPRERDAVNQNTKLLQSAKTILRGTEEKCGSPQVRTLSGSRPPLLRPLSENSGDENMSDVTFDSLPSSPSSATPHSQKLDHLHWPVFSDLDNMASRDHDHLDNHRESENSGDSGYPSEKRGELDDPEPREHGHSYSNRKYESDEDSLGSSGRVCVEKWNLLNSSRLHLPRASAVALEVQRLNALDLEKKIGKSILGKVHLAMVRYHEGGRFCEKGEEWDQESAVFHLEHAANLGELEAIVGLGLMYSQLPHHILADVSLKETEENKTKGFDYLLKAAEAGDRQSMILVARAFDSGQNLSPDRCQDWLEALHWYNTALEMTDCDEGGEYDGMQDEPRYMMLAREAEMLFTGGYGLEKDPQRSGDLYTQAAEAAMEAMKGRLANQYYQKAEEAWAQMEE
kinases in BCWM.1 cells (Homo sapiens, UniProt P78356), sequence (P78356 2-416 limits assumed): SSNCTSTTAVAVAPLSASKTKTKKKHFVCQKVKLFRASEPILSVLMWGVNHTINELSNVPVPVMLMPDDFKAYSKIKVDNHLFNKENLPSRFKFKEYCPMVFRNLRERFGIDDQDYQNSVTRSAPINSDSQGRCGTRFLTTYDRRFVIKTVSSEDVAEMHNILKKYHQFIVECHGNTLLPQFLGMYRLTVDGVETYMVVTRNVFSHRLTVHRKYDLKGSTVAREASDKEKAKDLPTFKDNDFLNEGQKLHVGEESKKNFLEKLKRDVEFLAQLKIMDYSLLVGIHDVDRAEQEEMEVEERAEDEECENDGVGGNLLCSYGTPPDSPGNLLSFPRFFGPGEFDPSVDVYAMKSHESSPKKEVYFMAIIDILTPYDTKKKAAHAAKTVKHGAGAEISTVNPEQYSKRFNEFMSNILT

Turning to `C=CC(=O)N1CC[C@H](Nc2nccc(Nc3ncc(C(=O)Nc4c(C)cccc4C)s3)n2)C1` [Example I-3], the “% change of MS signal compared to control sample” value (from here on “% change of MS signal”) in [1] was over 96%; in [2], 3.5% and 9%; in experiment [3], −12.1% and −10.6%; in experiment [4], −1.8% and 1.1%; in experiment [5], 15.6% and 5.8%; in experiment [6], 92.9% and 95.7%. Moreover, the “% change of MS signal” value was 3% and 8.3% in [7]; −2.1% and 1.7% in [8]; −11.3% and −5.5% in experiment [9]; 95.7% and 95.4% in [10]; −1% and 0.5% in experiment [11]; −3.7% and −4.5% in experiment [12]. Further, the “% change of MS signal” value is 92.4% and 95.8% in experiment [13]; 6.8% and −0.1% in [14]; 3.6% and 9.7% in experiment [15]; 12.4% and 3.6% in experiment [16]; −5.6% and −4.6% in experiment [17]; 26.2% in experiment [18]. Also, the “% change of MS signal” value in experiment [19] is −2% and −3.8%; in experiment [20], −18.9% and −27.8%; in experiment [21], 23.2% and 23.8%; in [22] it was 20.7% and 19.5%; in experiment [23], −12.1% and −18%; in experiment [24], −11.2% and −8.7%.

In the case of `CCC(=O)N1CC[C@H](Nc2nccc(Nc3ncc(C(=O)Nc4c(C)cccc4C)s3)n2)C1` [Example I-9], the “% change of MS signal” value in experiment [25] is listed as −38.2%; in experiment [26], 7.2%; in [27], 17.6%; in [28] it was −4.5%; in [29] it was −9.8%.
